Values of other authors as cited in US8809210B2, “Low roughness high surface-energy, anti-microbial fabric” (priority 2009, dated 2014).

Settings: when covalently bonded to a surface

CCCCCCCCCCCCCCCCCC[N+](C)(C)CCC[Si](OC)(OC)OC.[Cl-] [Si-QAC, 3-(Trimethoxysilyl)-propyldimethyloctadecyl ammonium chloride]
antimicrobial activity: antimicrobial activity
